# Patent US20220265759A1, “COMPOSITION AND METHOD FOR PROMOTING WOUND HEALING” (THE BOARD OF TRUSTEES OF THE UNIVERSITY OF ILLIOIS, priority 2019, published 2022)
# “Also recorded” adds a separate entry of the source. Peptide text beside a SMILES is read from it. * marks the point of attachment. Myristoyl = CCCCCCCCCCCCCC(=O)*
# How the values were obtained:
# CCR10-eNOS interaction [1] = biological target: T1, CCR10-eNOS interaction (Homo sapiens, UniProt P46092); assay: Co-IP of CCR10-eNOS interaction in HUVECs stimulated with A23187; format: cell-based; conditions: endothelial cells (HUVECs), pretreatment 50 μM, 5 μM A23187 for 5 minutes, vs control peptide
# T1 construct: host or cells: HUVEC (primary human umbilical vein endothelial cells)
# T1 sequence (P46092 1-362): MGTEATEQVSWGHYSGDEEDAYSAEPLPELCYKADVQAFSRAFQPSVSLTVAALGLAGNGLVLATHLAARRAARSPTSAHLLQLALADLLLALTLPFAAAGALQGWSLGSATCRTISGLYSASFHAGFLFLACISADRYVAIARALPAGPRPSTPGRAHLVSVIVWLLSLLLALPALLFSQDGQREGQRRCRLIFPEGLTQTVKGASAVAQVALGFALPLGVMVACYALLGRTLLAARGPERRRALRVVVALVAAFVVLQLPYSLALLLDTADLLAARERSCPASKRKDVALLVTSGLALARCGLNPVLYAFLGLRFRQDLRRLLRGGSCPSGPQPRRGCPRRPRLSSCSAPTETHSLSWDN
# Procedure: (§1) Immunoblot and Co-Immunoprecipitation (Co-IP). After serum starvation, inhibitors were added 45 minutes prior to stimulation for indicated times at 37° C., and cells were then collected and lysed for western blot analysis. After probing for p-eNOS (Ser1177), p-p85 (Tyr458), p-Src (Tyr 416), and p-ERK (T202/Y204), the same blots were stripped and re-probed for total proteins mentioned above. For detection of CCL28-induced protein levels of β-catenin and Bcl-2, near-confluent endothelial cells were incubated with 500 ng/ml CCL28 for 24 hours in EGM-2 medium containing 1% FBS.
# (§2) Co-IP Experiments, cells or mouse wounds were collected after treatment, and lysed in 2% ODG in Tris buffer. The homogenates were further prepared for Co-IP experiments as described in the art (Chen, et al. (2018) Mol. Biol. Cell 29(10):1190-1202; Chen, et al. (2020) FASEB J. 34(4):5838-5850; Chen, et al. (2015) Ann. Rheum. Dis. 74:1898-1906).
# Therefore, the effect of inhibition of CCR10-eNOS interaction was investigated using a panel of cell-permeable peptides based on the sequence of the predicted interaction domain on eNOS. Similar peptides have been described in determining the solution structure of calmodulin bound to the target peptide of eNOS (Piazza, et al. (2014) Biochemistry 53(8):1241-9; Piazza, et al. (2016) Biochemistry 55(42):5962-71). First, myristoylated 20 amino acid peptide (491-[…]-510 (P1); SEQ ID NO:61) was synthesized based on the sequence of human eNOS (which is conserved in mouse eNOS). […] It was subsequently determined whether truncated versions of the CBD-derived peptide would have the same effect.
# [2] = system: CCL28, IL-6, TNF-α, IL-1β, CCR10, VEGF, IL-13, IL-4, eNOS, CD31, Flk-1, VE-cadherin; assay: ELISA and real-time RT-PCR of inflammatory factors and EC markers in db/db mouse wounds; format: in vivo, db/db mice
# Procedure: Real-Time RT-PCR. Total cellular RNA from mouse skin wounds was extracted using nucleic acid extraction reagent sold under the tradename TRIZOL®. mRNA expression of different genes was examined by real-time RT-PCR that employed a SYBR Green PCR mix. Relative gene expression was determined by the ΔΔCt method based on GAPDH levels as described previously (Chen, et al. (2013) J. Immunol. 190:5256-5266).
# ELISA Measurement. Mouse skin wounds were collected, lysed, and prepared for ELISA measurement of mouse CCL28 and IL-6 according to manufacturer's instructions.
# It was investigated whether topical application of Myr-CBD7 affects these factors in db/db mice known to play important roles in the healing processes. Mouse wounds on day 3 (Inflammation Phase) and day 12 (Proliferation Phase) were collected and inflammatory factor levels were determined by ELISA and real-time RT-PCR.
# On day 12 after Myr-CBD7 treatment, elevated levels of eNOS/NO were observed as well as enhanced angiogenesis in mouse wounds. Furthermore, Myr-CBD7 treatment lead to elevated levels of VEGF, anti-inflammatory cytokines IL-13 and IL-4 (M2 markers), as well as EC markers eNOS, CD31, Flk-1 and VE-cadherin in mouse wounds.
# eNOS = assay: Immunoblot of eNOS phosphorylation in endothelial cells; format: cell-based, human; conditions: in presence of peptide
# Procedure: as §1
# CCR10-eNOS interaction [3] = biological target: T2, CCR10-eNOS interaction (Mus musculus, UniProt Q9JL21); assay: Co-IP of CCR10-eNOS interaction in db/db mouse wounds; format: in vivo, db/db mice; conditions: day 12, vs Ctl-P
# T2 construct: cells or mouse wounds were collected after treatment, and lysed in 2% ODG in Tris buffer; tissue Jackson Laboratory; host or cells: dorsal skin wounds of WT C57BL/6 or db/db mice
# T2 sequence (Q9JL21 1-362): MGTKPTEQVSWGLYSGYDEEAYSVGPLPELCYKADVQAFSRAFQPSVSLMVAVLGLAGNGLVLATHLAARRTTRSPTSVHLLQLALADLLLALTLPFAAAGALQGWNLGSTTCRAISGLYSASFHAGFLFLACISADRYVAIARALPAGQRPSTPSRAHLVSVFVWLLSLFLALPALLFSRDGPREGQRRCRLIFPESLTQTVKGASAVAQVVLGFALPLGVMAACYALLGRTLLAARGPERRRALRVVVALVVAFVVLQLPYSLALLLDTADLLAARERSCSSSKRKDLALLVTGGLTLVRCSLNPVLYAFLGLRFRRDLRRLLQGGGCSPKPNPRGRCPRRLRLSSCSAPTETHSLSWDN
# Procedure: as §2
# Two 8 mm full thickness excisional wounds were made on the dorsal skin of diabetic db/db mice and then 50 μl of 50 μM Myr-CBD7 peptide was topically applied. […] Reduced CCR10-eNOS interaction was also observed in the mouse wounds following treatment with Myr-CBD7 peptide as determined by Co-IP (FIG. 6).
# CaM-eNOS binding = biological target: T3, CaM-eNOS binding (Homo sapiens, UniProt P0DP23); assay: Co-IP of eNOS-CaM binding in endothelial cells; format: cell-based; conditions: pretreatment, 5-minute treatment with 500 ng/ml CCL28
# T3 construct: endogenous in cells
# From the text: as §2
# It has been reported that calmodulin (CaM) binding to bovine eNOS occurs at residues 493-[…]-512 (SEQ ID NO:2) (Venema, et al. (1996) J. Biol. Chem. 271(11):6435-6440; Venema, et al. (1995) J. Biol. Chem. 270:14705-14711). Therefore, using Co-IP, it was assessed whether Myr-CBD7 affects eNOS-CaM binding.
smiles,measurement,setting,value
"CCCCCCCCCCCCCC(=O)N[C@@H](CCCCN)C(=O)N[C@H](C(=O)N[C@@H](CO)C(=O)N[C@@H](C)C(=O)N[C@@H](CO)C(=O)N[C@@H](CC(C)C)C(=O)N[C@@H](CCSC)C(=O)O)[C@@H](C)CC [Myr-CBD7, myr-KISASLM] (Myristoyl-KISASLM-OH)",CCR10-eNOS interaction (Co-IP),CCR10-eNOS interaction [1],significant reduction
same,CCR10-eNOS interaction (Co-IP),CCR10-eNOS interaction [1]; listed as P4,completely blocked
same,level of CCR10,"[2]; day 3, compared to control peptide",reduced
same,mRNA level of IL-6,[2]; day 3 wounds,reduced
same,protein level of CCL28,"[2]; day 3 wounds, ELISA",significantly reduced
same,protein level of IL-6,"[2]; day 3 wounds, ELISA",significantly reduced
same,protein level of TNF-α,"[2]; day 3 wounds, ELISA",significantly reduced
same,level of EC marker CD31,[2]; day 12 wounds,elevated
same,level of EC marker Flk-1,[2]; day 12 wounds,elevated
same,level of EC marker VE-cadherin,[2]; day 12 wounds,elevated
same,level of EC marker eNOS,[2]; day 12 wounds,elevated
same,level of IL-4,[2]; day 12 wounds,elevated
same,level of IL-13,[2]; day 12 wounds,elevated
same,level of VEGF,[2]; day 12 wounds,elevated
same,eNOS phosphorylation (Ser1177),eNOS,significantly enhanced
same,CCR10-eNOS interaction in wounds (Co-IP),CCR10-eNOS interaction [3],Reduced; also recorded: disrupted
same,CaM-eNOS binding (Co-IP),CaM-eNOS binding,no effect
